Data published in paper PMC10672039, “Novel Ca-Chelating Peptides from Protein Hydrolysate of Antarctic Krill (Euphausia superba): Preparation, Characterization, and Calcium Absorption Efficiency in Caco-2 Cell Monolayer Model” (Marine Drugs, 2023).
Peptide text beside a SMILES is read from it.

What was measured:
[1] = system: Caco-2 cells; assay: Cytotoxicity, MTT assay; assay type: cell-based, Human; settings: 24 h treatment
Protocol: (§1) Caco-2 cells were obtained from the Shanghai Institute of Cell Biology (Shanghai, China) and cultured in EMEM with 10% fetal bovine serum, 1% antibiotic, and 1% nonessential amino acids in a humidified incubator at 37 °C with 5% CO2. The cell culture medium was replaced every two days with a new medium of equal volume. The Caco-2 cells were dispersed using trypsin-EDTA when they covered approximately 90% of the flask and were seeded on 6-well transwell culture plates with polyester membranes. The medium was replaced every other day with a new medium of equal volume. After being cultured for 21 days, the transepithelial electrical resistance (TEER) was determined to confirm the integrity of the Caco-2 cell monolayers. The Caco-2 cell monolayers were used for Ca transport experiments when the TEER exceeded 300 Ω·cm^2 [60, 66].
Cell cytotoxicity was determined using the MTT assay. […] Then, MTT solution (100 μL) was added per well and incubated for an additional 4 h. The MTT solution per well was replaced by an equal volume of DMSO solution to solubilize. Finally, the absorbance of the sample solution at 570 nm was measured.

[2] = system: Caco-2 cell monolayer; assay: Ca transport across the Caco-2 cell monolayer; assay type: in vitro ADME, Human; settings: Caco-2 monolayer, mean ± SD, n = 3
Protocol: as §1
The Ca transport in the Caco-2 cell monolayer model was analyzed using previous methods. After 21 days of incubation, the culture medium of Caco-2 cells was discarded from each well, and monolayers were immediately washed with HBSS buffer (without Ca and magnesium) two times. The Caco-2 cell monolayers were transferred to a new 6-well culture plate containing 2 mL of HBSS buffer, and 2 mL of HBSS buffer was also added to the apical side. After incubating for 30 min, the HBSS on the apical side was replaced with 2 mL of HBSS containing VERG-Ca chelate (200 μM) or Ca (150 μg/mL), and the HBSS on the basolateral side was replaced with an equal volume of fresh HBSS buffer. After incubation for 2 h, 1 mL of HBSS in the basolateral side was removed to determine Ca content at the designed time (30, 60,120, and 180 min). At the same time, fresh HBSS buffer (1 mL) was added to the basolateral side to maintain a constant volume. The content of Ca was determined by atomic absorption spectrometry using HNO3 and HClO4 as the oxidizers.
In the experiments on the effects of vitamin D3 and phytate on Ca absorption, dietary factors (vitamin D3 and phytate) were first premixed with VERG-Ca chelate or CaCl2, respectively, at a mass ratio of 1:1. […]

SMILES	effect on viability of Caco-2 cells ([1]; 250 μM, vs control group (p < 0.05))	effect on viability of Caco-2 cells ([1]; 50–200 μM, vs control group)	absorption amount of Ca with phytate ([2]; 180 min (stated for CaCl2; not restated for the chelate), premixed with phytate at mass ratio 1:1) [μg/mg protein]	quantity of Ca of transport / absorption amount of Ca ([2]; 180 min, apical to basolateral, HBSS, VERG-Ca chelate 200 μM or Ca 150 μg/mL, atomic absorption spectrometry) [μg/mg protein]	absorption amount of Ca with vitamin D3 ([2]; 180 min, premixed with vitamin D3 at mass ratio 1:1) [μg/mg protein]
CC(C)[C@H](N)C(=O)N[C@@H](CCC(=O)O)C(=O)N[C@@H](CCCNC(=N)N)C(=O)NCC(=O)O [ACP4, Val-Glu-Arg-Gly] (H-VERG-OH)	significantly decrease the viability	no significant effect on cell viability	–	–	–
[Ca+2].[Cl-].[Cl-] [CaCl2]	–	–	2.02 ± 0.24	2.96 ± 0.28	5.14 ± 0.23
